Where “and” joins values, the source holds several entries; their conditions need not be identical. Identical values can stand only once.
Assay: mn = molality of the nth substance listed, in mol/kg
Conditions: 101 kPa, Liquid; for viscosity: Capillary tube (Ostwald / Ubbelohde) method; for electrical conductivity: DIgital conductivity meter (306) of Systronics; for speed of sound: Pulse-echo method

CCCCCCCCCCCCOS(=O)(=O)[O-].[Na+] [sodium dodecyl sulfate] + O
Conditions	electrical conductivity [S/m]	mass density [kg/m3]	speed of sound	viscosity [mPa·s]
298.15 K, m1 = 0.001	–	–	1497.2 m/s	–
298.15 K, m1 = 0.003	–	–	1497.5 m/s	–
298.15 K, m1 = 0.005	–	–	1497.8 m/s	–
298.15 K, m1 = 0.007	–	–	1497.9 m/s	–
298.15 K, m1 = 0.008	–	–	1497.9 m/s	–
298.15 K, m1 = 0.01	–	–	1498.1 m/s	–
298.15 K, m1 = 0.02	–	–	1498.2 m/s	–
298.15 K, m1 = 0.03	–	–	1498.4 m/s	–
298.15 K, m1 = 0.05	1	999.078	1498.3 m/s and 1498.3 m/s	0.986
298.15 K, m1 = 0.07	–	–	1498.2 m/s	–
298.15 K, m1 = 0.1	2.6	1000.97	1498 m/s	1.133
298.15 K, m1 = 0.103	–	–	1498.2 m/s	–
303.15 K, m1 = 0.001	–	–	1509.5 m/s	–
303.15 K, m1 = 0.003	–	–	1509.8 m/s	–
303.15 K, m1 = 0.005	–	–	1510.1 m/s	–
303.15 K, m1 = 0.007	–	–	1510.1 m/s	–
303.15 K, m1 = 0.008	–	–	1510.2 m/s	–
303.15 K, m1 = 0.01	–	–	1510.3 m/s	–
303.15 K, m1 = 0.02	–	–	1510.3 m/s	–
303.15 K, m1 = 0.03	–	–	1510.4 m/s	–
303.15 K, m1 = 0.05	–	–	1510.2 m/s	–
303.15 K, m1 = 0.07	–	–	1509.9 m/s	–
303.15 K, m1 = 0.103	–	–	1509.7 m/s	–
308.15 K, m1 = 0.001	–	–	1520.1 m/s	–
308.15 K, m1 = 0.003	–	–	1520.4 m/s	–
308.15 K, m1 = 0.005	–	–	1520.6 m/s	–
308.15 K, m1 = 0.007	–	–	1520.7 m/s	–
308.15 K, m1 = 0.008	–	–	1520.7 m/s	–
308.15 K, m1 = 0.01	–	–	1520.8 m/s	–
308.15 K, m1 = 0.02	–	–	1520.8 m/s	–
308.15 K, m1 = 0.03	–	–	1520.7 m/s	–
308.15 K, m1 = 0.05	2.1	995.942	1520.3 m/s and 1520.2 m/s	0.79
308.15 K, m1 = 0.07	–	–	1519.9 m/s	–
308.15 K, m1 = 0.1	3.4	997.734	1519.1 m/s	0.87
308.15 K, m1 = 0.103	–	–	1519.3 m/s	–
313.15 K, m1 = 0.001	–	–	1529 m/s	–
313.15 K, m1 = 0.003	–	–	1529.3 m/s	–
313.15 K, m1 = 0.005	–	–	1529.5 m/s	–
313.15 K, m1 = 0.007	–	–	1529.5 m/s	–
313.15 K, m1 = 0.008	–	–	1529.6 m/s	–
313.15 K, m1 = 0.01	–	–	1529.7 m/s	–
313.15 K, m1 = 0.02	–	–	1529.5 m/s	–
313.15 K, m1 = 0.03	–	–	1529.4 m/s	–
313.15 K, m1 = 0.05	–	–	1528.8 m/s	–
313.15 K, m1 = 0.07	–	–	1528.2 m/s	–
313.15 K, m1 = 0.103	–	–	1527.3 m/s	–

Reference: the NIST ThermoML archive (doi:10.1021/je9006019)
